Results published in PMC9007951, “Systematically evaluating DOTATATE and FDG as PET immuno-imaging tracers of cardiovascular inflammation” (Scientific Reports, 2022).
Blank lines part the entries; values can stand above or below the compound they belong to.

How the values were obtained:
[1] = Blood half-life of [^64Cu]Cu-DOTATATE, gamma counting of blood, two-phase decay fit; format: in vivo, mice; settings: for %fast: two-phase decay fit of blood radioactivity over 120 min; for %slow / Weighed t1/2 (weighted blood half-life) / t1/2 fast / t1/2 slow: two-phase decay fit
Experimental: Wild-type and atherosclerotic animals were injected with approximately 1.85 MBq of [^64Cu]Cu-DOTATATE and euthanized at either 1, 5, 15, 30, 60 or 120 min after injection (Supplementary Fig. S1A) to evaluate the tracer’s biodistribution. After euthanasia, an insulin syringe was used to collect blood samples from the right ventricle. Blood samples were used for the establishment of pharmacokinetics profile. Mice were then perfused with 20 mL of phosphate-buffered saline (PBS) and tissues of interest (heart, aorta, bone marrow, spleen, liver, stomach, bladder, kidneys, intestines, lungs, adrenal gland, muscles and pancreas) were harvested. Tissues were blotted for gamma counting on a Wizard2 2480 automatic gamma counter (Perkin Elmer, Waltham, MA). Values were corrected for decay and normalized to tissue weight to express radioactivity concentration as percentage injected dose per gram (%ID/g). […] To investigate the tracer’s distribution within different blood compartments, after gamma counting, 100 μL of blood were spun down at 2000 g for 15 min at 4 °C. Plasma (supernatant) and cells (pellet) were gamma counted and expressed as percentage of total activity. The remainder of the blood was separated using Lymphoprep density gradient medium (Nycomed Pharma, Zurich, Switzerland) following manufacturer’s instructions. Percentage of activity in mononuclear and polynuclear cells was calculated.

[2] = In vivo PET/CT of cardiac inflammation in infarcted mice; settings: female, mouse, heart, iv, 5.55 MBq, total radioactivity, healthy C57Bl/6 mice, tracer circulated 60 min, median, N = 4, read-out: SUVmax heart of control animals
Experimental: (§1) Myocardial infarction in mice was induced by permanent ligation of the left anterior descending (LAD) coronary artery of female C57Bl/6 mice (N = 18). Briefly, animals were anesthetized with xylazine (10 mg/kg) and ketamine (100 mg/kg) and intubated using an endotracheal intubation kit from Braintree Scientific (Braintree, MA). Left-sided thoracotomy and pericardial incision were performed. A 7-0 Silk suture was used to occlude the LAD. Incisions were closed with a 5-0 Silk suture. Infarcted animals were treated with 0.1 mg/kg of buprenorphine every 12 h and used 3 days after the surgery.
(§2) For the PET/CT experiments, mice were fasted for 12 h before radiotracer injection and anesthetized with xylazine (10 mg/kg) and ketamine (100 mg/kg) through intraperitoneal injection prior to radiotracer administration. Subsequently they were injected via the lateral tail vein with approximately 22.2 MBq of [^18F]F-FDG or 5.55 MBq of [^64Cu]Cu-DOTATATE. Tracers were allowed to circulate for 60 min. Immediately before imaging, mice were placed under 1% isoflurane (BaxterHealthcare, Deerfield, IL), and subsequently imaged on a high resolution (700 µm) Mediso nanoScan PET/CT scanner (Mediso, Budapest, Hungary). CT scan was acquired at 50 kVp and 300 ms exposure per projection. eXIA160 (Binitio, Ontario, Canada) was used as a contrast agent to improve imaging of the vasculature by intravenous administration of 100 μl per mouse 5 min prior to CT acquisition. PET acquisition time was 40 min. Reconstruction was performed using TeraTomo 3D reconstruction engine, for 8 iterations and 6 subsets per iteration for both tracers. The voxel size was isotropic at 0.3 mm. Immediately after the PET/CT scan, animals were euthanized for ex vivo assays.
(§3) Using OsiriX v5.6 software (OsiriX Foundation, Geneva, Switzerland), regions of interest (ROIs) were drawn to determine organ radioactivity concentration. In mice, for healthy and infarcted myocardium, ROIs were traced manually in the apex of the heart in the axial view. For remote myocardium, analysis was performed in myocardium 180° from the infarcted zone. In the mice aorta, sequential ROIs were drawn in the ascending aorta based on consecutive tomographic (CT) slices beginning from the root up to the brachiocephalic branch, merging point with the aortic arch. Voxel counts were converted to maximum standardized uptake values (SUVmax). In rabbits, PET images were fused with time-of-flight bright blood MRI angiography and ROIs were manually drawn on the infrarenal abdominal aorta in TOF images. The slice-by-slice maximum standard uptake values (SUVmax) were averaged across the whole aorta. […]

[3] = test system: C57Bl/6 mice subjected to myocardial infarction; test: as above; settings: tracer circulated 60 min, median
Experimental: as §1, §2, §3

[4] = [^68Ga]Ga-DOTATATE distribution in blood fractions (plasma vs cells); format: in vivo, New Zealand White rabbits; settings: control (N = 2) and athero4mo (N = 3) rabbits
Experimental: Adopting a translational approach, the rabbit studies were performed with the [^68Ga]Ga-labeled tracer, which is already being used in the clinic. [^68Ga]Ga-DOTATATE was purchased from Advanced Accelerator Applications (AAA, Millburn, NJ, USA). To determine its pharmacokinetics, three atherosclerotic rabbits and two healthy controls were injected with approximately 190 MBq of [^68Ga]Ga-DOTATATE. Venous blood was sampled at 1, 5, 10, 15, 20, 30, 60, 120, 180, 240 and 300 min after injection through the ear vein. Samples were weighed and gamma counted. Blood half-life data were fitted using a two-phase decay non-linear regression using GraphPad Prism v8.4.3 (Supplementary Table S1). To investigate the tracer blood distribution, blood samples were centrifuged at 2000 g for 15 min at 4 °C to determine the radioactivity concentration in the plasma and cellular fractions. To analyze [^68Ga]Ga-DOTATATE biodistribution, all rabbits were euthanized after the last imaging time-point using an injection of pentobarbital 100 mg/kg and exsanguination of the portal vein. Rabbits were extensively perfused with 1000 mL of saline. Following, tissues (blood, heart, aorta, liver, kidney, skeletal muscle, small and large intestine, fat, stomach, pancreas and bladder) were harvested, weighed and gamma counted.

[5] = C57Bl/6 mice 3 days after LAD ligation, N = 4 ([^64Cu]Cu-DOTATATE), N = 6 ([^18F]F-FDG)

%fast ([1]; Apoe^-/- mice, N = 6): 11.27%
%slow ([1]; Apoe^-/- mice, N = 6): 88.73%
Weighed t1/2 (weighted blood half-life) ([1]; Apoe^-/- mice, N = 6): 6.83 min
t1/2 fast ([1]; Apoe^-/- mice, N = 6): 0.557 min
t1/2 slow ([1]; Apoe^-/- mice, N = 6): 7.627 min
%fast ([1]; C57Bl/6 mice, N = 7): 79.14%
%slow ([1]; C57Bl/6 mice, N = 7): 20.86%
Weighed t1/2 (weighted blood half-life) ([1]; C57Bl/6 mice, N = 7): 4.83 min
t1/2 fast ([1]; C57Bl/6 mice, N = 7): 1.939 min
t1/2 slow ([1]; C57Bl/6 mice, N = 7): 15.81 min
SUV at 1 h [2]: 0.6 SUV
SMILES: C[C@@H](O)[C@H](NC(=O)[C@@H]1CSSC[C@H](NC(=O)[C@@H](Cc2ccccc2)NC(=O)CN2CCN(CC(=O)O)CCN(CC(=O)O)CCN(CC(=O)O)CC2)C(=O)N[C@@H](Cc2ccc(O)cc2)C(=O)N[C@H](Cc2c[nH]c3ccccc23)C(=O)N[C@@H](CCCCN)C(=O)N[C@@H]([C@@H](C)O)C(=O)N1)C(=O)O [[^64Cu]Cu-DOTATATE, metal not drawn]

SUVmax infarcted myocardium [3, 5]: 4.2
SUVmax remote (non-infarcted) myocardium [3, 5]: 2.1
SUVmax heart of control animals ([3]; healthy C57Bl/6 mice, N = 4): 3.4
SMILES: OC[C@H]1OC(O)[C@H]([18F])[C@@H](O)[C@@H]1O (stereo partly drawn) [[^18F]F-FDG, [^18F]F-fluorodeoxyglucose]

distribution between plasma and cells [4]: detected in plasma, rather than cells
SMILES: C[C@@H](O)[C@H](NC(=O)[C@@H]1CSSC[C@H](NC(=O)[C@@H](Cc2ccccc2)NC(=O)CN2CCN(CC(=O)O)CCN(CC(=O)O)CCN(CC(=O)O)CC2)C(=O)N[C@@H](Cc2ccc(O)cc2)C(=O)N[C@H](Cc2c[nH]c3ccccc23)C(=O)N[C@@H](CCCCN)C(=O)N[C@@H]([C@@H](C)O)C(=O)N1)C(=O)O [[^68Ga]Ga-DOTATATE, metal not drawn]
